According to patent publication US20260174857A1, “METHODS OF ADJUVANT TREATMENT FOR ALLERGY IMMUNOTHERAPY” (Revelation Biosciences, Inc., priority 2022, published 2026):

What was measured:
TLR4 [1] = target: T1, TLR4 (Rattus norvegicus, UniProt Q9QX05); assay: IL-6 and IL-10 cytokine response after IV administration in rats; type: in vivo
T1 construct: from tissue; host or cells: whole animal (rat), in vivo
T1 sequence (Q9QX05 26-835): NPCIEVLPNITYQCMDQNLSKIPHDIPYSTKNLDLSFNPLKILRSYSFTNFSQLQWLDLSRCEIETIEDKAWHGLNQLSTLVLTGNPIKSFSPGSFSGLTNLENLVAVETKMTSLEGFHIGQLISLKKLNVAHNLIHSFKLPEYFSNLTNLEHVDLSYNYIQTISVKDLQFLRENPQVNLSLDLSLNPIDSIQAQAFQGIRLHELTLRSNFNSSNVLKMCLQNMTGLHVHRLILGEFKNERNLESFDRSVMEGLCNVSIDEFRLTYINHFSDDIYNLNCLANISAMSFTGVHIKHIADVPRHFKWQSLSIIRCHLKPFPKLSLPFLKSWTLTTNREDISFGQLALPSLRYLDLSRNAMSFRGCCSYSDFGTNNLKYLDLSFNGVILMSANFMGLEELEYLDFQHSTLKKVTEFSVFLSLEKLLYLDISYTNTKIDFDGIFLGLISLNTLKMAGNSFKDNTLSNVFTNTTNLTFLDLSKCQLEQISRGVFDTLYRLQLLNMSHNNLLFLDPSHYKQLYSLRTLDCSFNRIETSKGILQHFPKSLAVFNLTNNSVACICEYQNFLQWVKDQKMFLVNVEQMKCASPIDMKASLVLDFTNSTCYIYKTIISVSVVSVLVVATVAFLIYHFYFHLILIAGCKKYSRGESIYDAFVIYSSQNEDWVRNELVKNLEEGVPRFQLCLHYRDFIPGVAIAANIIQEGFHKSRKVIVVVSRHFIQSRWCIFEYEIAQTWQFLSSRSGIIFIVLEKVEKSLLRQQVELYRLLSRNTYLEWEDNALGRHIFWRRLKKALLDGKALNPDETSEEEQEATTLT
Excerpt: (§1) IP-10 is an important cytokine associated with stimulation of the TRIF pathway. Evidence of IL-6 and IL-10 and IP-10 upregulation is confirmation that PHAD preparations as noted in this application are capable of TLR4 stimulation, with a bias toward stimulating the TRIF pathway, which is further confirmation of the amelioration or reduction of activity mediated through the MyD88 signaling pathway, which supports the amelioration of pro-inflammatory cytokine production.

TLR4 [2] = target: T2, TLR4 (Mus musculus, UniProt Q9JHF9+Q9QUK6); assay: in vitro cell based activity assay, IP-10 upregulation in mouse macrophages (J774 cell line)
T2 construct: endogenous in cells; host or cells: J774 mouse macrophage cell line
T2 sequence (Q9QUK6 26-835): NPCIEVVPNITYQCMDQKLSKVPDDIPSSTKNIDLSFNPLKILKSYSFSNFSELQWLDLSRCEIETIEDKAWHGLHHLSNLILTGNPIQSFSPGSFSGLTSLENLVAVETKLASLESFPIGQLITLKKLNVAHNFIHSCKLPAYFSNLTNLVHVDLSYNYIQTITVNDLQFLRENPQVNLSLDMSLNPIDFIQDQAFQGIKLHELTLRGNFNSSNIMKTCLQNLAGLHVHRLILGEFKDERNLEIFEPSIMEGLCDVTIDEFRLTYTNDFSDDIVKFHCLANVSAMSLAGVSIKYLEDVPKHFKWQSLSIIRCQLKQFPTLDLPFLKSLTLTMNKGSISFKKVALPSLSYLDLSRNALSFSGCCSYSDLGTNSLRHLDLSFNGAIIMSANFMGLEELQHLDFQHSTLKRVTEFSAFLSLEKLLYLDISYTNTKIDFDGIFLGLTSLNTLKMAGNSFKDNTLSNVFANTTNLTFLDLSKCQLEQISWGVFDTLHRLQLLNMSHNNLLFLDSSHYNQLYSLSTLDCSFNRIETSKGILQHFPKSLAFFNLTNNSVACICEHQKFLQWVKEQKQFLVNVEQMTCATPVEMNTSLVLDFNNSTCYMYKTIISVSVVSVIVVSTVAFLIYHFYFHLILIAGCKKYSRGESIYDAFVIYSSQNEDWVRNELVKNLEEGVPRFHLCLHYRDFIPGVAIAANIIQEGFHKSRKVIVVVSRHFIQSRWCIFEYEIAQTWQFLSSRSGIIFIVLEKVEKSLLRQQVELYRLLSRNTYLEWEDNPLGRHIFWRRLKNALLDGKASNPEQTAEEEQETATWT
T2 sequence (Q9JHF9 19-160): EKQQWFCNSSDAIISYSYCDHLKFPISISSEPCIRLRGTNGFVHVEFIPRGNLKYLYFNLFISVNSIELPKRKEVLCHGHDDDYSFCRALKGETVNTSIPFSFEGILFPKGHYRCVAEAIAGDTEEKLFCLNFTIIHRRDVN
Excerpt: Interferon-β is required for production of IP-10, therefore IP-10 is considered a surrogate marker for Type I interferon activity.
as §1

[3] = second dose at 24 hours, compared with first dose

- anti-inflammatory cytokines (e.g., IL-10) following a second dose (TLR4 [1]; [3]): larger increase
- pro-inflammatory cytokines (e.g., IL-6) following a second dose (TLR4 [1]; [3]): smaller increase
- inflammatory and protective cytokines following a first dose (TLR4 [1]; two doses of PHAD, after first dose): initial increase
- upregulation of IP-10 as a result of TLR4 stimulation (TLR4 [2]): IP-10 upregulation as a function of dose
Substance: phosphorylated hexaacyl disaccharide [PHAD]
